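Interpolation was linear, between the two tested concentrations surrounding the appropriate level; five concentrations were tested over 48 hours in 96-well plates. The concentration for full growth arrest is given as TGI.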
Assays:
Test in all cases: DTP human tumour cell line panel, 48 h
NCI-H460 lung = system: NCI-H460 lung
SN12C renal = system: SN12C renal
786-0 renal = system: 786-0 renal
MDA-N = system: MDA-N
SR leukemia = system: SR leukemia
IGROV1 ovarian = system: IGROV1 ovarian
HCC-2998 colon = system: HCC-2998 colon
PC-3 prostate = system: PC-3 prostate
RXF 393 renal = system: RXF 393 renal
SNB-75 CNS = system: SNB-75 CNS
EKVX NSCLC = system: EKVX NSCLC
MDA-MB-435 = system: MDA-MB-435
RPMI-8226 leukemia = system: RPMI-8226 leukemia
SK-MEL-5 melanoma = system: SK-MEL-5 melanoma
ACHN renal = system: ACHN renal
OVCAR-5 ovarian = system: OVCAR-5 ovarian
SNB-19 CNS = system: SNB-19 CNS
UACC-62 melanoma = system: UACC-62 melanoma
OVCAR-8 ovarian = system: OVCAR-8 ovarian
NCI-H522 lung = system: NCI-H522 lung
SK-MEL-28 melanoma = system: SK-MEL-28 melanoma
UACC-257 melanoma = system: UACC-257 melanoma
OVCAR-4 ovarian = system: OVCAR-4 ovarian
HOP-92 NSCLC = system: HOP-92 NSCLC
NCI/ADR-RES ovarian = system: NCI/ADR-RES ovarian
SF-539 CNS = system: SF-539 CNS
SF-295 CNS = system: SF-295 CNS
HS 578T breast = system: HS 578T breast
K-562 leukemia = system: K-562 leukemia
SK-OV-3 ovarian = system: SK-OV-3 ovarian
BT-549 breast = system: BT-549 breast
HOP-62 NSCLC = system: HOP-62 NSCLC
T-47D breast = system: T-47D breast
HL-60(TB) leukemia = system: HL-60(TB) leukemia
UO-31 renal = system: UO-31 renal
A549 NSCLC = system: A549 NSCLC
OVCAR-3 ovarian = system: OVCAR-3 ovarian
MALME-3M melanoma = system: MALME-3M melanoma
CAKI-1 renal = system: CAKI-1 renal
NCI-H23 lung = system: NCI-H23 lung
HCT-15 colon = system: HCT-15 colon
CCRF-CEM leukemia = system: CCRF-CEM leukemia
MCF7 breast = system: MCF7 breast
M14 melanoma = system: M14 melanoma
COLO 205 colon = system: COLO 205 colon
HT29 colon = system: HT29 colon
HCT-116 colon = system: HCT-116 colon
MOLT-4 leukemia = system: MOLT-4 leukemia
SF-268 CNS = system: SF-268 CNS
LOX IMVI melanoma = system: LOX IMVI melanoma
SW-620 colon = system: SW-620 colon
NCI-H226 lung = system: NCI-H226 lung
KM12 colon = system: KM12 colon
A498 renal = system: A498 renal
DU-145 prostate = system: DU-145 prostate
U251 CNS = system: U251 CNS
TK-10 renal = system: TK-10 renal
SK-MEL-2 melanoma = system: SK-MEL-2 melanoma
MDA-MB-231 breast = system: MDA-MB-231 breast

## COc1ccc(OC)c(NC(=O)c2c(Cl)c(Cl)c(Cl)c(Cl)c2-c2nc3ccccc3[nH]2)c1
NCI-H460 lung
  TGI: > 100 µM
SN12C renal
  TGI: > 100 µM
786-0 renal
  TGI: > 100 µM
MDA-N
  TGI: > 100 µM
SR leukemia
  TGI: > 100 µM
IGROV1 ovarian
  TGI: > 100 µM
HCC-2998 colon
  TGI: > 100 µM
PC-3 prostate
  TGI: > 100 µM
RXF 393 renal
  TGI: > 100 µM
SNB-75 CNS
  TGI: > 100 µM
EKVX NSCLC
  TGI: > 100 µM
MDA-MB-435
  TGI: > 100 µM
RPMI-8226 leukemia
  TGI: > 100 µM
SK-MEL-5 melanoma
  TGI: > 100 µM
ACHN renal
  TGI: > 100 µM
OVCAR-5 ovarian
  TGI: > 100 µM
SNB-19 CNS
  TGI: > 100 µM
UACC-62 melanoma
  TGI: > 100 µM
OVCAR-8 ovarian
  TGI: > 100 µM
NCI-H522 lung
  TGI: > 100 µM
SK-MEL-28 melanoma
  TGI: > 100 µM
UACC-257 melanoma
  TGI: > 100 µM
OVCAR-4 ovarian
  TGI: > 100 µM
HOP-92 NSCLC
  TGI: > 100 µM
NCI/ADR-RES ovarian
  TGI: > 100 µM
SF-539 CNS
  TGI: > 100 µM
SF-295 CNS
  TGI: > 100 µM
HS 578T breast
  TGI: > 100 µM
K-562 leukemia
  TGI: > 100 µM
SK-OV-3 ovarian
  TGI: > 100 µM
BT-549 breast
  TGI: > 100 µM
HOP-62 NSCLC
  TGI: > 100 µM
T-47D breast
  TGI: > 100 µM
HL-60(TB) leukemia
  TGI: > 100 µM
UO-31 renal
  TGI: > 100 µM
A549 NSCLC
  TGI: > 100 µM
OVCAR-3 ovarian
  TGI: > 100 µM
MALME-3M melanoma
  TGI: > 100 µM
CAKI-1 renal
  TGI: > 100 µM
NCI-H23 lung
  TGI: > 100 µM
HCT-15 colon
  TGI: > 100 µM
CCRF-CEM leukemia
  TGI: > 100 µM
MCF7 breast
  TGI: > 100 µM
M14 melanoma
  TGI: > 100 µM
COLO 205 colon
  TGI: > 100 µM
HT29 colon
  TGI: > 100 µM
HCT-116 colon
  TGI: > 100 µM
MOLT-4 leukemia
  TGI: > 100 µM
SF-268 CNS
  TGI: > 100 µM
LOX IMVI melanoma
  TGI: > 100 µM
SW-620 colon
  TGI: > 100 µM
NCI-H226 lung
  TGI: > 100 µM
KM12 colon
  TGI: > 100 µM
A498 renal
  TGI: > 100 µM
DU-145 prostate
  TGI: > 100 µM

## CC(C)(C)OC(=O)NCC(c1c[nH]c2ccc(Br)cc12)c1c[nH]c2ccc(Br)cc12
SN12C renal
  TGI: 18.1 µM
786-0 renal
  TGI: 13.2 µM
MDA-N
  TGI: 21.2 µM
IGROV1 ovarian
  TGI: 17.3 µM
U251 CNS
  TGI: 19.1 µM
HCC-2998 colon
  TGI: 18 µM
PC-3 prostate
  TGI: 11.8 µM
RXF 393 renal
  TGI: 25.7 µM
EKVX NSCLC
  TGI: 15.2 µM
MDA-MB-435
  TGI: 28.7 µM
RPMI-8226 leukemia
  TGI: > 100 µM
SK-MEL-5 melanoma
  TGI: 19 µM
ACHN renal
  TGI: 18.1 µM
OVCAR-5 ovarian
  TGI: 20.2 µM
SNB-19 CNS
  TGI: 23.3 µM
UACC-62 melanoma
  TGI: 23.1 µM
OVCAR-8 ovarian
  TGI: 45.6 µM
NCI-H522 lung
  TGI: 25.2 µM
SK-MEL-28 melanoma
  TGI: 34.9 µM
UACC-257 melanoma
  TGI: 25.6 µM
OVCAR-4 ovarian
  TGI: 25.9 µM
HOP-92 NSCLC
  TGI: 19.4 µM
NCI/ADR-RES ovarian
  TGI: 23.1 µM
SF-539 CNS
  TGI: 27.8 µM
SF-295 CNS
  TGI: 21.9 µM
HS 578T breast
  TGI: 47.7 µM
K-562 leukemia
  TGI: > 100 µM
BT-549 breast
  TGI: 24.8 µM
HOP-62 NSCLC
  TGI: 27.3 µM
T-47D breast
  TGI: 32.9 µM
HL-60(TB) leukemia
  TGI: 37.1 µM
TK-10 renal
  TGI: 25.2 µM
UO-31 renal
  TGI: 19.6 µM
SK-MEL-2 melanoma
  TGI: 22.3 µM
A549 NSCLC
  TGI: 17.2 µM
OVCAR-3 ovarian
  TGI: 17.2 µM
MALME-3M melanoma
  TGI: 33.3 µM
CAKI-1 renal
  TGI: 24.5 µM
NCI-H23 lung
  TGI: 14.5 µM
HCT-15 colon
  TGI: 20.8 µM
CCRF-CEM leukemia
  TGI: 71.1 µM
MCF7 breast
  TGI: 22 µM
M14 melanoma
  TGI: 12.6 µM
COLO 205 colon
  TGI: 16.2 µM
MDA-MB-231 breast
  TGI: 32.1 µM
HT29 colon
  TGI: 12.2 µM
HCT-116 colon
  TGI: 13.8 µM
SF-268 CNS
  TGI: 25.6 µM
LOX IMVI melanoma
  TGI: 22.7 µM
SW-620 colon
  TGI: 24.9 µM
NCI-H226 lung
  TGI: 36.7 µM
KM12 colon
  TGI: 19.4 µM
A498 renal
  TGI: 29.1 µM
DU-145 prostate
  TGI: 27.7 µM

Source: PubChem BioAssay (NCI)
